This is an account of results in PMC5876368, “Evaluation of a dimeric-cRGD peptide for targeted PET-CT imaging of peripheral angiogenesis in diabetic mice” (Scientific Reports, 2018).

The nature of data set [1]: Biodistribution and clearance in mice (gamma well counting and PET-CT). The class given is in vivo. Conditions: one hour after jugular vein injection, gamma well counting. The procedure:
One week after occlusion, 5 groups of animals were injected with 6.81 ± 0.536 MBq of ^64Cu-NOTA-PEG4-cRGD2 via the jugular vein and at various time points (30 min n = 3, 1 hr n = 3, 2 hr n = 3, 4 hr n = 3, and 24 hr n = 2), different organs were excised and subjected to gamma well counting. The mass and radioactivity of tissue sections were assessed with a Voyager Pro. (Ohaus, USA) and Wizard2 gamma well counter (PerkinElmer, USA) respectively. The ^64Cu signal was then corrected to account for background radioactivity, radioactive decay of the samples, and tissue weight.
One week after occlusion, DM and non-DM mice (n = 15) were injected with 6.81 ± 0.536 MBq of ^64Cu-NOTA-PEG4-cRGD2 via the jugular vein and 60 minutes later in vivo microPET-CT imaging was performed using a small animal dedicated Inveon system (Siemens Healthcare USA). […]
Skeletal muscles from both the ischemic and non-ischemic hindlimbs were excised and separated into distal and proximal sections based on the location of the ligature in the ischemic limb and anatomical landmarks in the non-ischemic limb. The mass and radioactivity of tissue sections were assessed with a Voyager Pro. […] The ^64Cu signal was then corrected to account for background radioactivity, radioactive decay of the samples, and tissue weight.

Data set [2] deals with T1, αV β3 integrin (Mus musculus, UniProt O54890+P43406).
T1 construct: from tissue; host or cells: hindlimb skeletal muscle of live C57BL/6 mice (ischemic and non-ischemic, DM and non-DM)
T1 sequence (P43406 31-885 limits assumed): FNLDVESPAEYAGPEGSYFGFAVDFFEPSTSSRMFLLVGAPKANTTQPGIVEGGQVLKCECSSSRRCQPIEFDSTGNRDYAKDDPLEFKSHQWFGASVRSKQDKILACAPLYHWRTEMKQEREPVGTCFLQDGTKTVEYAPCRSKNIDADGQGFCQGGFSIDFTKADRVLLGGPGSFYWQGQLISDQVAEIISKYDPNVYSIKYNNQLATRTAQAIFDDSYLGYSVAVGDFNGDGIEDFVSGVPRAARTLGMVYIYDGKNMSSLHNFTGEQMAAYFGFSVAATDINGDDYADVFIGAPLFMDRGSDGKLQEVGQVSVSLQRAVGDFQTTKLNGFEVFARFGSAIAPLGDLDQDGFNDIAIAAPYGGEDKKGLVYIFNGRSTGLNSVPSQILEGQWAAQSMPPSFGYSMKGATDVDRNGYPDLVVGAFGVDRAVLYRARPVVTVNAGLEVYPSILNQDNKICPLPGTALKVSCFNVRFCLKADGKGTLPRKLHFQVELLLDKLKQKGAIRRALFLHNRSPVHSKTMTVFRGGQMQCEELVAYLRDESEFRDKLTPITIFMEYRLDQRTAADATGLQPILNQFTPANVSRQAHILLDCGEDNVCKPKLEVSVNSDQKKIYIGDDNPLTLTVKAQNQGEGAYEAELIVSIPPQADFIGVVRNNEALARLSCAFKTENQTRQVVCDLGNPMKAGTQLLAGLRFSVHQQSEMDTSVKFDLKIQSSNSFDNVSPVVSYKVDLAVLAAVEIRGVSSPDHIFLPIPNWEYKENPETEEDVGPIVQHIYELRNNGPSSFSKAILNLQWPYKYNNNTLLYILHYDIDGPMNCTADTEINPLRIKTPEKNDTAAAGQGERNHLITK
T1 sequence (P43406 887-1044 partner limits assumed): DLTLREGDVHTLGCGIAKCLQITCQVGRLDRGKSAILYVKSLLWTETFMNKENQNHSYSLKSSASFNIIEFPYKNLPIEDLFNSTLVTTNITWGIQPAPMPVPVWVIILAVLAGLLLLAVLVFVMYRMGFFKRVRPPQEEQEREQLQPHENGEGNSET
T1 sequence (O54890 26-787): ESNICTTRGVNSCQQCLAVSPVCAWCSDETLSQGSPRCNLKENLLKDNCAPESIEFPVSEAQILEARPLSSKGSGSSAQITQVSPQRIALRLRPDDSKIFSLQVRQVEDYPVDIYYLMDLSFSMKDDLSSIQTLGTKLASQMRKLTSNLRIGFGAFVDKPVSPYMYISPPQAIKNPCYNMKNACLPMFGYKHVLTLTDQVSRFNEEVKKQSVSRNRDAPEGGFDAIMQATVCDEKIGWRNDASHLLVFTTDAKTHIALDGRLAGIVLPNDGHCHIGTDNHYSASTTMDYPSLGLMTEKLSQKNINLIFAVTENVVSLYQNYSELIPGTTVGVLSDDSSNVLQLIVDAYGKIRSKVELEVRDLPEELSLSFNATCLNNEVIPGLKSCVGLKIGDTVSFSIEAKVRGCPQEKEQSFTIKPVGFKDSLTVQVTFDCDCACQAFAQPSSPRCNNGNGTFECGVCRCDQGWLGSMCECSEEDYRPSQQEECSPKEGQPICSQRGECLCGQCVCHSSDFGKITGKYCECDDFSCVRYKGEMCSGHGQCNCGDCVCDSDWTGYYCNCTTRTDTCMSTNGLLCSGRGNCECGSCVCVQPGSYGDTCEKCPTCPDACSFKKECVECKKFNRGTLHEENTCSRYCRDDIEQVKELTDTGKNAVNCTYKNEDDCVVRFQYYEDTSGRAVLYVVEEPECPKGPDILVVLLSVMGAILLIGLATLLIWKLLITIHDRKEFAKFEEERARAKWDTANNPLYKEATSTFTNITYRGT
In words: PET-CT imaging and gamma well counting of hindlimb uptake after femoral artery ligation, DM vs non-DM mice. The settings on record: mice 1 week after femoral artery ligation. The class given is in vivo. The procedure:
All animals underwent hindlimb occlusion of the right femoral artery and a sham operation on the left hindlimb, following previously-described procedures. Briefly, a small incision was made on the right leg to expose the femoral vasculature, and dual ligation of the femoral artery was performed distal to the profundus branch to induce unilateral hindlimb ischemia. All mice were allowed to recover for 7 days after surgery.
One week after occlusion, DM and non-DM mice (n = 15) were injected with 6.81 ± 0.536 MBq of ^64Cu-NOTA-PEG4-cRGD2 via the jugular vein and 60 minutes later in vivo microPET-CT imaging was performed using a small animal dedicated Inveon system (Siemens Healthcare USA). An additional group of non-diabetic mice (n = 4) was injected with 7.21 ± 2.31 MBq of ^64Cu-acetate to study differential organ biodistribution of ^64Cu-NOTA-PEG4-cRGD2. […]
The microPET and microCT images were reconstructed using the OSEM/3D algorithm (Siemens Healthcare USA) and the cone-beam technique (Cobra Exim), respectively. MicroPET images were fused with microCT images and quantified using a semiautomated approach developed and evaluated previously. […] To validate the accuracy of the quantitative targeted imaging approach, image-derived results were compared with the gamma well counting analysis of the corresponding tissue samples. […]

For `CC(=O)[O-].CC(=O)[O-].[64Cu+2]` [^64Cu-acetate], in data set [1], the “organ uptake in liver, gallbladder, kidneys and intestines” value was above 20 %I.D./g. Further, in data set [2], the “retention in ischemic relative to non-ischemic hindlimb” value was “comparable accumulation in both limbs”.
